In the supplement of paper PMC10307832:

Key:
Test in all cases: relative viability (nuclei count vs DMSO), 5 days (fraction); higher = more cells survive
CUDC-101 + Trametinib = compound: C#Cc1cccc(Nc2ncnc3cc(OC)c(OCCCCCCC(=O)NO)cc23)c1 [CUDC-101] + CC(=O)Nc1cccc(-n2c(=O)n(C3CC3)c(=O)c3c(Nc4ccc(I)cc4F)n(C)c(=O)c(C)c32)c1 [Trametinib] (partner 0.02 µM)
Method in brief: (§1)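 Lung cancer cell lines, seeded in 1536-well plates, were treated the following day by pin tool with a single drug or with five library-drug doses (not always all listed) in √10 steps on top of a fixed anchor-drug dose. Cells were fixed and nuclei stained in one step after 5 days, and nuclei were counted. Relative viability is the nuclei count for treated wells divided by that for vehicle wells, reported as medians of duplicate plates.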

CUDC-101 + Lapatinib = compound: C#Cc1cccc(Nc2ncnc3cc(OC)c(OCCCCCCC(=O)NO)cc23)c1 [CUDC-101] + CS(=O)(=O)CCNCc1ccc(-c2ccc3ncnc(Nc4ccc(OCc5cccc(F)c5)c(Cl)c4)c3c2)o1 [Lapatinib] (partner 2 µM)
Method in brief: as §1

Vandetanib + OSI-027 = compound: COc1cc2/c(=N/c3ccc(Br)cc3F)nc[nH]c2cc1OCC1CCN(C)CC1 [Vandetanib] + COc1cccc2cc(-c3nc([C@H]4CC[C@H](C(=O)O)CC4)n4ncnc(N)c34)[nH]c12 [OSI-027] (partner 0.5 µM)
Method in brief: as §1

Vandetanib + Dasatinib = compound: COc1cc2/c(=N/c3ccc(Br)cc3F)nc[nH]c2cc1OCC1CCN(C)CC1 [Vandetanib] + Cc1nc(Nc2ncc(C(=O)Nc3c(C)cccc3Cl)s2)cc(N2CCN(CCO)CC2)n1 [Dasatinib] (partner 0.075 µM)
Method in brief: as §1

Cell Line	relative viability (CUDC-101 + Trametinib; first compound 0.01 µM)	relative viability (CUDC-101 + Trametinib; first compound 0.03162 µM)	relative viability (CUDC-101 + Trametinib; first compound 0.1 µM)	relative viability (CUDC-101 + Trametinib; first compound 0.3162 µM)	relative viability (CUDC-101 + Trametinib; first compound 1 µM)	relative viability (CUDC-101 + Lapatinib; first compound 0.01 µM)	relative viability (CUDC-101 + Lapatinib; first compound 0.03162 µM)	relative viability (CUDC-101 + Lapatinib; first compound 0.1 µM)	relative viability (CUDC-101 + Lapatinib; first compound 0.3162 µM)	relative viability (CUDC-101 + Lapatinib; first compound 1 µM)	relative viability (Vandetanib + OSI-027; first compound 0.02 µM)	relative viability (Vandetanib + OSI-027; first compound 0.06325 µM)	relative viability (Vandetanib + OSI-027; first compound 0.2 µM)	relative viability (Vandetanib + OSI-027; first compound 0.6325 µM)	relative viability (Vandetanib + OSI-027; first compound 2 µM)	relative viability (Vandetanib + Dasatinib; first compound 0.02 µM)	relative viability (Vandetanib + Dasatinib; first compound 0.06325 µM)	relative viability (Vandetanib + Dasatinib; first compound 0.2 µM)	relative viability (Vandetanib + Dasatinib; first compound 0.6325 µM)	relative viability (Vandetanib + Dasatinib; first compound 2 µM)
NCI-H2087	0.224	0.225	0.204	0.195	0.185	0.986	1.37	1.04	1.04	0.761	0.524	0.526	0.581	0.614	0.513	0.809	0.661	0.684	0.835	0.984
PC-14	0.928	0.605	0.619	0.233	0.0423	0.328	0.282	0.315	0.321	0.171	0.931	0.576	0.458	0.145	0.109	0.246	0.136	0.0576	0.0422	0.0429
H3255	0.596	0.536		0.445	0.209	0.244	0.248	0.24	0.248	0.174	0.655	0.459	0.455	0.417	0.227	0.364	0.358	0.325	0.252	0.264
NCI-H460	0.108	0.224	0.227	0.182	0.0486	1.04	0.994	0.873	0.919	0.339	0.604	0.611	0.615	0.583	0.586	0.366	0.536	0.48	0.36	0.482
HOP-62	0.362	0.361	0.403	0.441	0.346	1.03	0.909	1.05	0.768	0.821	0.789	0.739	0.815	0.903	0.846	0.611	0.569	0.671	0.573	0.684
HCC-78	0.781	0.711	0.864	0.667	0.545	0.882	0.92	0.808	0.701	0.631	0.374	0.39	0.42	0.364	0.361	0.428	0.286	0.362	0.451	0.336
NCI-H2085	0.607	0.496	0.706	0.604	0.505	0.817	0.686	0.826	0.752	0.502	0.797	0.795	0.735	0.673	0.559	0.226	0.236	0.2	0.279	0.244
COR-L23	0.641	0.548	0.74	0.574	0.332	1.02	1.02	0.889	1.1	0.449	0.731	0.671	0.736	0.684	0.789	0.485	0.438	0.462	0.446	0.564
HARA	0.417	0.487		0.356	0.235	0.739	0.789	0.739	0.71	0.453	0.542	0.299	0.466	0.525	0.483	0.305	0.264	0.239	0.237	0.303
201T	0.734	0.711	0.714	0.69	0.701	1.03	1.02	0.943	1.08	0.872	0.69	0.664	0.719		0.672	0.573	0.527	0.578	0.589	0.575
EMC-BAC-2	0.918	0.811	0.864	0.779	0.479	0.836	0.88	0.909	0.974	0.485	0.382	0.358	0.318	0.381	0.38	0.332	0.312	0.327	0.295	0.3
NCI-H1944	0.375	0.422	0.415	0.388	0.373	0.777	0.747	0.799	0.709	0.5	0.398	0.433	0.408	0.396	0.382	0.208	0.218	0.205	0.195	0.215
NCI-H727	0.394	0.374	0.418	0.371	0.353	0.825	0.531	0.844	0.801	0.678	0.533	0.551	0.536	0.545	0.446	0.403	0.408	0.317	0.318	0.329
NCI-H1993	0.474	0.682	0.546	0.527	0.553	0.758	0.899	1.03	0.995	0.635	0.521	0.573	0.557	0.637	0.552	0.796	0.577	0.514	0.623	0.578
NCI-H3122	0.201	0.224	0.198	0.243	0.228	1.07	0.984	0.882	1.02	1.01	0.97	0.924	0.937	0.931	1.06	0.683	0.673	0.122	0.76	0.797
NCI-H1651	0.863	0.786	0.806	0.845	0.8	0.869	0.813	0.884	0.771	0.325	0.595	0.703	0.667	0.616	0.628	0.313	0.461	0.431	0.394	0.386
